Experimental findings from US8822514B2, “Multi-cyclic compounds and methods of use” (Amgen Inc., priority 2006, dated 2014) are described below.

Each structure is given as a SMILES string. pIC50: −log10 of the molar value. Bounds are passed on as bounds.

Sequence of Tie-2 kinase enzyme (Q02763 23-1124): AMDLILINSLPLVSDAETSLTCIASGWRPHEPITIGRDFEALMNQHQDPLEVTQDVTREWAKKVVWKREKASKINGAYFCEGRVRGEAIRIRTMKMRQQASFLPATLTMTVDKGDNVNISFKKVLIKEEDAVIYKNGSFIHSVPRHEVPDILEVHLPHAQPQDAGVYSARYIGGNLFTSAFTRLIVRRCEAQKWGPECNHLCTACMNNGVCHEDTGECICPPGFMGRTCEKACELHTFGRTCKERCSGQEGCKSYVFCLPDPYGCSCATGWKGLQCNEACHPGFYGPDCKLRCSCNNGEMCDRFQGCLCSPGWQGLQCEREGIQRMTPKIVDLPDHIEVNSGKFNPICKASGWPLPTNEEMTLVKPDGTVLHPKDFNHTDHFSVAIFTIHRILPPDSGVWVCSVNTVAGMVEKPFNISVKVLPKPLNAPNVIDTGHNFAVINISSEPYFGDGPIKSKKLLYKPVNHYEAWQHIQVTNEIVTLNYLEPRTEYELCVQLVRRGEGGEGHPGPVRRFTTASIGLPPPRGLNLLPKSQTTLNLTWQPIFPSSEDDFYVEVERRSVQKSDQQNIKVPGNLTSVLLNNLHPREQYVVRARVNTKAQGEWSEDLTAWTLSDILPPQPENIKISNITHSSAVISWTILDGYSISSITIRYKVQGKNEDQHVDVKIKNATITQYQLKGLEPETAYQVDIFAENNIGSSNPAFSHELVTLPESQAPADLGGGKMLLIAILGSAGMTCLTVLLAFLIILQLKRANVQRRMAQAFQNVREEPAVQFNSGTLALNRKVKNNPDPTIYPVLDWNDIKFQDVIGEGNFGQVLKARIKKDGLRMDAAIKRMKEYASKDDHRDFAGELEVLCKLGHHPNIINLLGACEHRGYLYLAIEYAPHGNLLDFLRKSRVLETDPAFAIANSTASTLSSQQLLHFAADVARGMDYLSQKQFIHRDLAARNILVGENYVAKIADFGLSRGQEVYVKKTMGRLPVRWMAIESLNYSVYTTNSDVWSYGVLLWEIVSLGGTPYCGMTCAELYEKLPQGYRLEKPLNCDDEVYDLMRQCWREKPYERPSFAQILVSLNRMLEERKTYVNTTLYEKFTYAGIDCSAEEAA

The assay addresses Tie-2 kinase enzyme (Homo sapiens, UniProt Q02763). In words: Tie-2 Homogenous Time Resolved Flourescent (HTRF) kinase assay. It counts as biochemical. Conditions: 0.01 mM ATP, about 90 minutes at RT; read-out: IC50 for the inhibition of Tie-2 as measured by the HTRF assay. The method, then: IC50's for the inhibition of the Tie-2 kinase enzyme for individual compounds were measured using an HTRF assay, utilizing the following procedure:
In a 96 well plate (available from Costar Co.) was placed 1 uL of each test and standard compound per well in 100% DMSO having a 25 uM final compound concentration (3-fold, 10 point dilution). To each well was added 20 uL of a reaction mix formed from […], 0.05% BSA (0.1 uL; from a 10% stock solution available from Sigma-Aldrich Co.), 0.002 mM of BLC HER-2 KKK (Biotinylated Long chain peptide; 0.04 uL; from a […] stock solution), 0.01 mM concentration of ATP (0.02 uL; commercially available from Sigma-Aldrich Co.) and the remaining solution was water (15.84 uL) to make to a total volume of 20 uL/well.
The reaction was initiated in each well by adding 20 uL per well of an enzyme preparation consisting of a 50 mM concentration of Hepes (1.0 uL; from a 1000 mM stock solution commercially available from Gibco Co.), 0.05% concentration of BSA (0.1 uL), 4 mM of DTT (0.08 uL; from a 1000 mM stock solution available from Sigma-Aldrich Co.), a 2.4×10^−7 concentration of Tie-2 (0.02 uL, from a 4 mM concentration stock), with the remaining volume being water (18.8 uL) to dilute the enzyme preparation to a total volume of 20 uL. The plate was incubated for about 90 minutes at RT. After incubation, a 160 uL of a filtered detection mixture, prepared from 0.001 mg/ml of SA-APC (0.0765 uL; available as a 2.09 mg/ml stock solution from Gibco), 0.03125 nM concentration of Eu-Ab (0.1597 uL; available in a 31.3 nM stock solution from Gibco), with the remaining volume being Detection buffer (159.73 uL), was added to each well to stop the reaction therein. The plate was then allowed to equilibrate for about 3 hr and read on a Ruby Star fluorescent reader (available from BMG Technologies, Inc.) using a 4 parameter fit using activity base to calculate the corresponding IC50's for the test and standard compounds in each well.
A word on the pIC50: it is −log10 of the IC50, conventionally taken in molar units. For the compound `Cc1ccc(C(=O)Nc2cccc(C(C)C)c2)cc1Oc1ncccc1-c1cn[nH]c1` [Example 1, 3-(3-(1H-pyrazol-4-yl)pyridin-2-yloxy)-N-(3-isopropylphenyl)-4-methylbenzamide], the pIC50 was not below 7.00.
For `CN(C)CCCN(C)c1ccc(C(F)(F)F)cc1NC(=O)c1cc(Oc2ncccc2-c2cnco2)ccc1F` [Example 2, N-(2-((3-(dimethylamino)propyl)(methyl)amino)-5-(trifluoromethyl)phenyl)-2-fluoro-5-(3-(oxazol-5-yl)pyridin-2-yloxy)benzamide], the pIC50 is not below 6.30.
With `Cc1ccc(C(=O)Nc2cccc(C(C)C)c2)cc1Nc1ncccc1-c1nnn[nH]1` [Example 3, 3-(3-(1H-tetrazol-5-yl)pyridin-2-ylamino)-N-(3-isopropylphenyl)-4-methylbenzamide], the pIC50 is not below 6.00.
The result for `Cc1ccc(C(=O)Nc2cccc(C(C)C)c2)cc1Oc1ncccc1-c1cnn(Cc2ccccc2)c1` [Example 10, 3-(3-(1-benzyl-1H-pyrazol-4-yl)pyridin-2-yloxy)-N-(3-isopropylphenyl)-4-methylbenzamide] reads not below 6.30.
The result for `COc1ccc(C2CCCCC2)cc1NC(=O)c1ccc(C)c(Oc2ncccc2-c2cn[nH]c2)c1` [Example 11, 3-(3-(1H-pyrazol-4-yl)pyridin-2-yloxy)-N-(5-cyclohexyl-2-methoxyphenyl)-4-methylbenzamide] reads not below 7.00; that for `Cc1ccc(C(=O)Nc2cccc(C(C)C)c2)cc1Nc1ncccc1-c1nnn[nH]1` [Example 12, 3-(3-(1H-tetrazol-5-yl)pyridin-2-ylamino)-N-(3-isopropylphenyl)-4-methylbenzamide], not below 6.30.
For the compound `Cc1ccc(C(=O)Nc2cccc(C(C)C)c2)cc1Oc1ncccc1-c1cnco1` [Example 14, N-(3-isopropylphenyl)-4-methyl-3-(3-(oxazol-5-yl)pyridin-2-yloxy)benzamide], the pIC50 is not below 7.00.
As to `Cc1ccc(C(=O)Nc2cccc(C(F)(F)F)c2)cc1Oc1ncccc1-c1ccn[nH]1` [Example 15, 3-(3-(1H-pyrazol-5-yl)pyridin-2-yloxy)-4-methyl-N-(3-(trifluoromethyl)phenyl)benzamide], the pIC50 was not below 6.30.
Turning to `O=C(Nc1cccc(OC(F)(F)F)c1)c1cc(Oc2ncccc2-c2cnco2)ccc1F` [Example 16, 2-fluoro-5-(3-(oxazol-5-yl)pyridin-2-yloxy)-N-(3-(trifluoromethoxy)phenyl)benzamide], the pIC50 was not below 6.00.
For `Cc1ccc(C(=O)Nc2cccc(C(C)C)c2)cc1Oc1ccccc1-c1cnco1` [Example 18, N-(3-isopropylphenyl)-4-methyl-3-(2-(oxazol-5-yl)phenoxy)benzamide] the value was not below 7.00.
`Cc1ccc(C(=O)Nc2cc(C(F)(F)F)ccc2N(C)CCCN(C)C)cc1Oc1ccccc1-c1cnco1` [Example 19, N-(2-((3-(dimethylamino)propyl)(methyl)amino)-5-(trifluoromethyl)phenyl)-4-methyl-3-(2-(oxazol-5-yl)phenoxy)benzamide]: the pIC50 was not below 6.30.
Regarding `Cc1ccc(C(=O)Nc2cc(C(F)(F)F)ccc2N(C)CCCN(C)C)cc1Oc1ncccc1-c1cnco1` [Example 20, N-(2-((3-(dimethylamino)propyl)(methyl)amino)-5-(trifluoromethyl)phenyl)-4-methyl-3-(3-(oxazol-5-yl)pyridin-2-yloxy)benzamide], the pIC50 is not below 6.30.
For `Cc1ccc(C(=O)Nc2cccc(C(F)(F)F)c2)cc1Oc1ncccc1-c1cnco1` [Example 22, 4-methyl-3-(3-(oxazol-5-yl)pyridin-2-yloxy)-N-(3-(trifluoromethyl)phenyl)benzamide] the value was not below 7.00; for `O=C(Nc1ccc(Oc2ncccc2-c2cn[nH]c2)cc1)c1ccccc1Nc1ccccc1` [Example 23, N-(4-(3-(1H-pyrazol-4-yl)pyridin-2-yloxy)phenyl)-2-(phenylamino)benzamide], not below 6.00.
